{"source": "patent US8425925B2", "about": "“Pesticidal tag” (priority 2007, dated 2013)", "key": {"[1]": {"tested_on": "pyrethroid-susceptible (PY-Susceptible) horn fly (Haematobia irritans irritans) strain", "type": "in vivo", "experimental": "(§1) A comparison of ivermectin formulations is made to determine their toxicity to horn fly (Haematobia irritans irritans) strains. Three formulations are tested: ivermectin alone, ivermectin formulated with epoxidized soybean oil (ESO), and ivermectin formulated with piperonyl butoxide (PBO). Both pyrethroid-resistant (PY-Resistant) and pyrethroid-susceptible (PY-Susceptible) horn fly strains are tested. […] See D C Sheppard & N C Hinkle, “A field procedure using disposable materials to evaluate horn fly insecticide resistance,” J. Agric. Entomol. 4:87-89 (1987).\n(§2) Table 1 presents the contact toxicity results in units of μg/cm^2, computed using Log-Probit Analysis. See, e.g., V. K. Borooah, Logit and Probit (2002) (Sage Publications, Thousand Oaks, Calif., USA).\n(§3) Further tests, similar to those of the Ivermectin tests described above, were performed using Abamectin compositions."}, "[2]": {"tested_on": "pyrethroid-resistant (PY-Resistant) horn fly (Haematobia irritans irritans) strain", "type": "in vivo", "experimental": "as §1, §2, §3"}, "[3]": {"details": "PY-Susceptible, 4-hour exposure, Log-Probit Analysis"}, "[4]": {"details": "4-hour exposure, Log-Probit Analysis"}}, "note": "Where two headings read alike, the source gives them in different places.", "data": [{"substance": "Ivermectin", "values": [{"measurement": "Lethal Concentration LC50", "setting": "[1]; [3]", "value": 165.6, "unit": "μg/cm^2"}, {"measurement": "Lethal Concentration LC90", "setting": "[1]; [3]", "value": 418.3, "unit": "μg/cm^2"}, {"measurement": "Lethal Concentration LC50", "setting": "[2]; [4]", "value": 93.8, "unit": "μg/cm^2"}, {"measurement": "Lethal Concentration LC90", "setting": "[2]; [4]", "value": 478.0, "unit": "μg/cm^2"}]}, {"substance": "Abamectin", "values": [{"measurement": "PY-Susceptible versus PY-Resitant RR50 (resistance ratio)", "setting": "[1]; 8 hour contact, LC50 of PY-susceptible divided by LC50 of PY-resistant horn flies", "value": 31.64}, {"measurement": "PY-Susceptible versus PY-Resitant RR90 (resistance ratio)", "setting": "[1]; 8 hour contact, LC90 of PY-susceptible divided by LC90 of PY-resistant horn flies", "value": 23.05}, {"measurement": "Lethal Concentrations (cell spanning LC50 and LC90)", "setting": "[1]; PY-Susceptible, 2 hour contact", "value": "no mortality"}, {"measurement": "Lethal Concentrations (cell spanning LC50 and LC90)", "setting": "[1]; PY-Susceptible, 4 hour contact", "value": "no mortality"}, {"measurement": "Lethal Concentrations LC50", "setting": "[1]; PY-Susceptible, 8 hour contact", "value": 37.65, "unit": "microgram/sq. cm"}, {"measurement": "Lethal Concentrations LC90", "setting": "[1]; PY-Susceptible, 8 hour contact", "value": 175.16, "unit": "microgram/sq. cm"}, {"measurement": "Lethal Concentrations (cell spanning LC50 and LC90)", "setting": "[2]; 2 hour contact", "value": "no mortality"}, {"measurement": "Lethal Concentrations LC50", "setting": "[2]; 4 hour contact", "value": 138.5, "unit": "microgram/sq. cm"}, {"measurement": "Lethal Concentrations LC90", "setting": "[2]; 4 hour contact", "value": "1,089 microgram/sq. cm"}, {"measurement": "Lethal Concentrations LC50", "setting": "[2]; 8 hour contact", "value": 1.19, "unit": "microgram/sq. cm"}, {"measurement": "Lethal Concentrations LC90", "setting": "[2]; 8 hour contact", "value": 7.60, "unit": "microgram/sq. cm"}]}]}
